Test results taken from article PMC7462607 (eLife, 2020).
Read-outs that look alike come from different tables or passages of the source.

Tests used:
[1] = tested on: A549 cells stably expressing 3xFLAG-CDK12 WT/G731E/G731R; test: Cell viability assay, A549 cells stably expressing wild-type or G731E/R mutant CDK12; assay type: cell-based; settings: Homo sapiens
Experimental: Seven hundred A549 cells or 1,000 HCT-116 cells in 50 µL of medium were plated per well in 384-well flat clear bottom white polystyrene TC-treated microplates (Corning, Corning, USA). After overnight attachment, cells were dosed with a serial dilution of HQ461 with a D300e digital dispenser (Tecan, Männedorf, Switzerland). Cell survival was measured 72 hr later using CellTiter-Glo luminescent cell viability assay kit (Promega, Madison, USA) following vendor instructions. Luminescence was recorded by EnVison multimode plate reader (PerkinElmer, Waltham, USA). IC50 was determined with GraphPad Prism using baseline correction (by normalizing to DMSO control), the asymmetric (five parameter) equation, and least squares fit.
An ORF encoding CDK12 isoform 2 (NM_015083.3) was PCR amplified from A549 cDNA and cloned into a pCDNA3.1-N-3xFLAG vector which was derived from the pCDNA3.1 vector. G731E and G731R mutations in CDK12 were introduced by overlap extension PCR. After sequencing verification, wild-type and mutant 3xFLAG-CDK12 sequences were subcloned into lentiCas9-Blast (Addgene 52962) by replacing the Cas9 ORF with 3xFLAG-CDK12. The resulting lenti-EF1α−3xFLAG-CDK12-P2A-BSD WT/GE/GR constructs were packaged into lentiviral vectors to transduce A549 cells. Stable cell lines were obtained by selection with 20 µg/ml of blasticidin.

CCNK = test: Western blotting of CCNK protein level in A549 cells; assay type: cell-based, Homo sapiens
Experimental: Standard SDS-PAGE and western blotting procedures were used with the following modifications. For preparation of total lysates, cells were rinsed with DPBS to remove residual medium and then lysed in 20 mM HEPES-NaOH, pH 8.0, 10 mM NaCl, 2 mM MgCl2, 1% SDS freshly supplemented with 0.5 units/µL of benzonase and 1x cOmplete, Mini, EDTA-free protease inhibitor cocktail (Roche, Bazel, Switzerland). Protein concentrations of the resulting lysates were quantified by the BCA method. Between 30 to 60 µg of proteins were resolved on SDS-PAGE and transferred to nitrocellulose membranes with a pore size of 0.5 μm. Membranes were blocked in 5% nonfat milk PBST (0.1% v/v Tween-20) for 30 min before blotting with antibodies. The following primary antibodies were used by dilution in 5% nonfat milk PBST: anti-NRF2 (Abcam, Cambridge, UK, ab62352, 1:4,000), anti-β-Actin-HRP (Huaxingbio, Beijing, China, HX18271,1:10,000), anti-α-Tubulin-HRFP (MBL Life Science, Japan, PM054-7, 1:10,000), anti-DDB1 (Abcam, Cambridge, UK, ab109027, 1:10,000), anti-RBX1 (Proteintech, Wuhan, China, 14895–1-AP, 1:5,000), anti-UBE2G1 (Proteintech, Wuhuan, China, 12012–1-AP, 1:2,000), anti-CDK12 (Cell Signaling Technology, Danvers, USA, 11973S,1:4,000), anti-CCNK (Bethyl lab, Montgomery, USA, A301-939A-T,1:4,000), anti-FLAG-HRP (Sigma-Aldrich, MO, USA, A8592, 1:10,000), anti-HA (BioLegend, San Diego, USA, 901533, 1:4,000), anti-RNA polymerase II subunit B1 (phospho CTD Ser-2) clone 3E10 (Sigma-Aldrich, MO, USA, 04–1571, 1:5,000), and anti-RNA polymerase II CTD repeat YSPTSPS antibody clone 8WG16 (Abcam, Cambridge, UK, ab817, 1:5,000). The following HRP-linked secondary antibodies were used by dilution in PBST: anti-rabbit IgG (Cell Signaling Technology, Danvers, USA, 7074S, 1:10,000), anti-mouse IgG (Zsbio, Beijing, China, ZB-2305, 1:10,000), and anti-rat IgG, (Sino Biological, Beijing, China, SSA005, 1:10,000). M5 HiPer ECL Western HRP Substrate (Mei5bio, Beijing, China, MF074-01) was used for the detection of HRP enzymatic activity. Western blot images were taken with a VILBER FUSION FX7 imager.

CDK12KD/CCNKΔC = biological target: T1, CDK12KD/CCNKΔC (Homo sapiens, UniProt Q9NYV4); test: Differential Scanning Fluorimetry (DSF), CDK12KD/CCNKΔC; assay type: binding; settings: 50 µM HQ461, Sypro Orange; read-out: increase in melting temperature (Tm) of CDK12KD/CCNKΔC
T1 construct: Human CDK12KD (residues 715–1052); 6xHis (PreScission site) (N, cleaved yes); made in house; host or cells: Sf9 or High Five, co-infected with yeast CAK1
Experimental: CDK12KD/CCNKΔC (WT or G731E/R) and DDB1ΔBPB were diluted to 5 μM with DSF assay buffer (50 mM HEPES pH 7.5, 300 mM NaCl, 0.5 mM TCEP). 50 µM HQ461 or 10 µM HBx was added to diluted proteins (final DMSO concentration 0.25%). Twenty µL of protein-compound mix was aliquoted per qPCR tube (Labtidebiotech, Shanghai, China, P01-0803E) followed by the addition of 5 µL of 1:400 diluted SYPRO Orange (Sigma-Aldrich, MO, USA, S5692). After incubation on ice for 20 min, fluorescence measurements were performed using a Bio-Rad CFX96 Realtime PCR instrument. During the DSF experiment, the temperature was increased from 10°C to 95°C at an increment of 0.5 °C with equilibration time of 10 s at each temperature prior to measurement. Tm was defined as the temperature corresponding to the maximum value of the first derivative of fluorescence transition.

T1 sequence (Q9NYV4 715-1052, stated change not applied): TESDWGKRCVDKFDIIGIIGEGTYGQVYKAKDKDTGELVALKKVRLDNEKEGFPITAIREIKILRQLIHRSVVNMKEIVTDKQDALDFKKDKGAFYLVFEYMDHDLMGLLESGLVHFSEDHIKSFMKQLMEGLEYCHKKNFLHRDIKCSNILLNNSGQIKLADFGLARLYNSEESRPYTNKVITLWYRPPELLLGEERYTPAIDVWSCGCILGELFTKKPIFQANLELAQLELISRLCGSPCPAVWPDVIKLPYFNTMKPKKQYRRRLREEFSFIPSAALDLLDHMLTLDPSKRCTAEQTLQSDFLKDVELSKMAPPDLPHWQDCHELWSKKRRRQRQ
T1 sequence (O75909 11-267 partner limits assumed): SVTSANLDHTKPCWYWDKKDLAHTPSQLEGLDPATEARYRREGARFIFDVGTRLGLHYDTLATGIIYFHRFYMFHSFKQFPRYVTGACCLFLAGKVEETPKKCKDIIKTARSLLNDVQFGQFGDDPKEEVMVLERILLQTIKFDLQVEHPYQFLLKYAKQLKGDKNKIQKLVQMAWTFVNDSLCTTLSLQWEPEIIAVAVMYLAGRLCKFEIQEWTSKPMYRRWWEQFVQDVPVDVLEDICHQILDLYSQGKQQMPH

Q: With `Cc1cccc(Nc2nc(CC(=O)Nc3ncc(C)s3)cs2)n1` [HQ461, 2-(2-((6-methylpyridin-2-yl)amino)thiazol-4-yl)-N-(5-methylthiazol-2-yl)acetamide] as the compound, how does the IC50 ([1]; CDK12 G731E, read-out: IC50 on the viability of A549 cells stably expressing G731E mutant CDK12) read?
A: 16.9 µM

Q: What about the IC50 ([1]; CDK12 G731R, read-out: IC50 on the viability of A549 cells stably expressing G731R mutant CDK12) of the same compound?
A: 22.9 µM

Q: What about the IC50 ([1]; read-out: IC50 on the viability of A549 cells stably expressing wild-type CDK12) of the same compound?
A: 1.3 µM

Q: And the “reduction of the CCNK protein level” value (CCNK; A549, 4 hr treatment)?
A: > 8 fold

Q: And the “CCNK protein level in cells with CDK12 G731E or G731R mutation” value (CCNK; A549 CDK12 G731E/G731R cells)?
A: not affected

Q: And the ΔTm at 50 µM (CDK12KD/CCNKΔC)?
A: 1.4 °C
